Reference: PMC6413339 (EBioMedicine, 2019)
“Also recorded” adds a separate entry of the source.

Tested on: MV4–11-luc cells
Test: In vivo efficacy, orthotopic human AML model
Conditions: for Photon intensity on whole body (mean±SEM): 25 mg/kg IP, 3×/week
Protocol: The in vivo efficacy of compounds was assessed in an orthotopic human AML model in NSG (NOD scid gamma, NOD-scid IL2Rg^null) mice that were bred at University of Maryland Baltimore (mating pairs acquired from Jackson Laboratories; Maine). […]. Three days later, engraftment was assessed by imaging on a Xenogen IVIS-2 Imaging System (Alameda) after an intraperitoneal (IP) injection of 150 mg/kg luciferin. Mice were sorted into four or five groups (n = 5) so that mean intensity (i.e., disease burden) was equal. Dosing started on day of sorting. Compounds were dissolved in 85% PBS (pH 7.4) buffer containing 10% DMSO and 5% Cremophore. The vehicle (buffer without compounds) was used as control. Mice were injected 3 to 5 days per week via IP injection. Mice were weighed on day of dosing and imaged once per week. […]. All mice were housed in a 12-h light/dark cycle with access to food and water ad libitum. Studies were performed with Institutional Animal Care and Use Committee (UMB and Purdue University) approval.
[…]. Female mice were dosed daily for 5 days via intraperitoneal injection and then monitored for an additional week for weight loss, a sign of toxicity in mice. […] To evaluate the anti-leukemic efficacy in vivo, six-week-old female NSG or NRG mice were injected intravenously with FLT3-ITD expressing acute myeloid leukemia cells (MV4–11), expressing luciferase. […] Dosing (i.p) with the compounds was then started. The mice were dosed with 25 mg/kg of the compounds three times a week (MWF). […] […].

Cc1ncc(C(=O)Nc2ccc(CN3CCN(C)CC3)c(C(F)(F)F)c2)cc1C#Cc1c(N)ncc2ccc(F)cc12 [Compound 7]
adverse events / signs of toxicity on repeated dosing (25 mg/kg IP 3×/week for several weeks, listed as HSN431): without any adverse events; also recorded: without any obvious signs of toxicity
reduction in leukemia burden (25 mg/kg i.p. three times a week (MWF), NSG or NRG mice): > 99%
Photon intensity on whole body (mean±SEM) (Day 1, n = 5): 130000 ± 21400
Photon intensity on whole body (mean±SEM) (Day 27, n = 5): 4570 ± 615
Photon intensity on whole body (mean±SEM) (Day 41, n = 5): 19600 ± 3730
Photon intensity on whole body (mean±SEM) (Day 73, n = 5): 4390 ± 140
survival (after day 73, 25 mg/kg IP 3×/week, n = 5): all five mice were still alive
mice still alive (day 40, 25 mg/kg three times per week, all control mice had died): 100%
